{"source": "patent US9180118B2", "about": "“Thiadiazolidinone derivatives” (University of Rochester, priority 2006, dated 2015)", "key": {"primary CLL specimens": {"system": "primary CLL specimens", "assay": "Viability of primary CLL specimens, Annexin V/7-AAD", "type": "cell-based", "settings": "Homo sapiens, 24 h; read-out: mean viability relative to untreated controls"}, "[1]": {"system": "primary blast crisis CML (bcCML) specimens", "assay": "Viability of primary bcCML specimens, Annexin V/7-AAD", "type": "cell-based", "settings": "Homo sapiens, 24 h; read-out: mean viability relative to untreated controls"}, "CD34+CD10− ALL cells": {"system": "CD34+CD10− ALL cells", "assay": "Viability of CD34+CD10− cells from ALL specimens", "type": "cell-based", "settings": "Homo sapiens, 24 h"}, "normal progenitor cells": {"system": "normal progenitor cells", "assay": "Methylcellulose colony assay, normal specimens", "type": "cell-based, human", "settings": "20 μM TDZD-8, 18 hours before plating, n=12", "method": "(§1) Cells were then plated at 50,000 cells/ml in Methocult™ GF H4534 (1% methylcellulose in IMDM, 30% FBS, 1% BSA, 10^−4M 2-mercaptoethanol, 2 mM L-glutamine, 50 ng/ml rh stem cell factor, 10 ng/ml rh GM-CSF, 10 ng/ml rh IL-3-Stem Cell Technologies, Vancouver, B.C.) supplemented with 3 units/ml of erythropoietin and 50 ng/ml G-CSF (R&D Systems, Minneapolis, Minn.). Colonies were scored after 10-14 days of culture."}, "bcCML progenitor cells": {"system": "bcCML progenitor cells", "assay": "Methylcellulose colony assay, bcCML", "type": "cell-based, human", "settings": "20 μM TDZD-8, 18 hours before plating, n=3", "method": "as §1"}, "[2]": {"system": "normal CB cells (hematopoietic stem cells)", "assay": "NOD/SCID xenotransplant engraftment of normal CB cells treated in culture", "type": "in vivo, human", "settings": "cells cultured 18 hours with 20 μM TDZD-8; n=3; NOD/SCID mice", "method": "NOD/SCID (NOD.CB17-prdkdc scid/J) mice (Jackson Laboratories, Bar Harbor, Me.) were sub-lethally irradiated with 270 rad using a RadSource™ X-ray irradiator the day before transplantation. Cells to be assayed (AML or normal umbilical cord blood—CB) were injected via tail vein (5-10 million cells) in a final volume of 0.2 ml of PBS with 0.5% FBS. After 6-8 weeks, animals were sacrificed and BM was isolated."}, "[3]": {"system": "primary AML, ALL and CLL specimens", "assay": "Free thiol analysis by mBBr labeling, leukemia specimens", "type": "cell-based, human", "settings": "20 μM TDZD-8, as early as 30 minutes after exposure", "method": "(§2) C. […] Intracellular thiol levels were assessed by flow cytometry after labeling with 50 μM monobromobimane (molecular probes)."}, "normal specimens": {"system": "normal specimens", "assay": "Free thiol analysis by mBBr labeling, normal specimens", "type": "cell-based, human", "settings": "20 μM TDZD-8", "method": "as §2"}, "[4]": {"system": "plasma membrane localized PKCα and β in primary CD34+ AML and ALL cells", "assay": "Immunoblot of membrane fractions for PKCα and PKCβ", "type": "cell-based, human", "settings": "TDZD-8 for 1 hour", "method": "Immunoblots. Cells were prepared and analyzed as previously described.^35 Membrane fractions were prepared using mem-PER eukaryotic membrane protein extraction kit as per manufacturer's instructions (Pierce; Rockford, Ill.). Blots were probed with phospho-PKC (pan) (beta II; Ser660), phospho-PKCalpha/betaII (Thr638/641), total PKCα, PKCβ and FLT3 (Santa Cruz Biotechnology, Calif.), Caspase-3 (Cell Signaling technologies; Danvers, Mass.); caspase-8 and PARP (BD bioscience), cleaved PARP (abcam) or anti-actin (AC-15; Sigma) antibodies."}, "[5]": {"system": "Breast cancer, 7 cell lines", "assay": "NCI-60 screen", "type": "cell-based", "settings": "Homo sapiens", "excerpt": "(§3) In contrast the cell viability for normal specimens was 79.5% (n=13)."}, "CCRF-CEM": {"system": "CCRF-CEM", "assay": "NCI-60 screen", "type": "cell-based", "settings": "Homo sapiens", "excerpt": "as §3"}, "CNS cancer, 6 cell lines": {"system": "CNS cancer, 6 cell lines", "assay": "NCI-60 screen", "type": "cell-based", "settings": "Homo sapiens", "excerpt": "as §3"}, "[6]": {"system": "Colon cancer, 7 cell lines", "assay": "NCI-60 screen", "type": "cell-based", "settings": "Homo sapiens", "excerpt": "as §3"}, "HL-60": {"system": "HL-60", "assay": "NCI-60 screen", "type": "cell-based", "settings": "Homo sapiens", "excerpt": "as §3"}, "K-562": {"system": "K-562", "assay": "NCI-60 screen", "type": "cell-based", "settings": "Homo sapiens", "excerpt": "as §3"}, "Melanoma, 8 cell lines": {"system": "Melanoma, 8 cell lines", "assay": "NCI-60 screen", "type": "cell-based", "settings": "Homo sapiens", "excerpt": "as §3"}, "[7]": {"system": "Non-small cell lung cancer, 9 cell lines", "assay": "NCI-60 screen", "type": "cell-based", "settings": "Homo sapiens", "excerpt": "as §3"}, "[8]": {"system": "Ovarian cancer, 5 cell lines", "assay": "NCI-60 screen", "type": "cell-based", "settings": "Homo sapiens", "excerpt": "as §3"}, "[9]": {"system": "Prostate cancer, 2 cell lines", "assay": "NCI-60 screen", "type": "cell-based", "settings": "Homo sapiens", "excerpt": "as §3"}, "RPMI-8226": {"system": "RPMI-8226", "assay": "NCI-60 screen", "type": "cell-based", "settings": "Homo sapiens", "excerpt": "as §3"}, "[10]": {"system": "Renal cancer, 7 cell lines", "assay": "NCI-60 screen", "type": "cell-based", "settings": "Homo sapiens", "excerpt": "as §3"}, "SR": {"system": "SR", "assay": "NCI-60 screen", "type": "cell-based", "settings": "Homo sapiens", "excerpt": "as §3"}, "[11]": {"system": "cell lines derived from hematologic malignancies", "assay": "NCI-60 screen, average", "type": "cell-based", "settings": "Homo sapiens; average over hematologic lines of NCI-60; read-out: average concentration to achieve 50% growth inhibition (GI50)", "excerpt": "as §3"}, "GSK3B (GSK3 beta)": {"biological_target": "GSK3B (GSK3 beta) (Homo sapiens, UniProt P49841)", "sequence (P49841 whole entry)": "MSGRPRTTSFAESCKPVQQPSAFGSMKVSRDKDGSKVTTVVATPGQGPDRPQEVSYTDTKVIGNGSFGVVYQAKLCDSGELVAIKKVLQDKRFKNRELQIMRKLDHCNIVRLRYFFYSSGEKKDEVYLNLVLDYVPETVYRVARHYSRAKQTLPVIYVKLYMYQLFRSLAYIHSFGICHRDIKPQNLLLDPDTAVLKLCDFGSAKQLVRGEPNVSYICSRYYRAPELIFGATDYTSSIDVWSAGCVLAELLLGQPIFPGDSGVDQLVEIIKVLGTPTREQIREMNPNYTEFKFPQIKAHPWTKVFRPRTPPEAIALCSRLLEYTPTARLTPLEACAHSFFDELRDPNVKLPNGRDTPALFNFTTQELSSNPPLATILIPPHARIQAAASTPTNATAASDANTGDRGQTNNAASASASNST", "assay": "Kinase assay (single point and titration)", "type": "biochemical", "settings": "TDZD-8 20 μM"}, "SRC": {"biological_target": "SRC (Homo sapiens, UniProt P12931)", "sequence (P12931 whole entry, species assumed)": "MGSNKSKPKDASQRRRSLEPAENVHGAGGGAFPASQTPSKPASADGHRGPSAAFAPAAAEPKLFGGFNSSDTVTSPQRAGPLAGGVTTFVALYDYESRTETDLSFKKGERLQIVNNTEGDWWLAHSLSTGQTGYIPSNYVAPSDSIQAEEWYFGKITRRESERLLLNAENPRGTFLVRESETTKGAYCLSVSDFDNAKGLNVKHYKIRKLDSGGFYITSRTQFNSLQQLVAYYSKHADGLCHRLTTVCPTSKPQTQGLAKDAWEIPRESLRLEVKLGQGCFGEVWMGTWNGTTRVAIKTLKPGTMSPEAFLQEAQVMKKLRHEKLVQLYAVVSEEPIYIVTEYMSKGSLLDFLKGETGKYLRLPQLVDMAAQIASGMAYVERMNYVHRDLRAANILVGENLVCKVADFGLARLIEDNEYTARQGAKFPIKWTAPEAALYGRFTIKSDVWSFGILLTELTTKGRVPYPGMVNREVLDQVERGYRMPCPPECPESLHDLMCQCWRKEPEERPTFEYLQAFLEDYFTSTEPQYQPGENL", "assay": "Kinase assay", "type": "biochemical", "method": "Kinase Assays: Single point and titration assays are performed using protocols (or essentially using protocols) know in the art for kinase activity profiling against a battery of kinase targets, including, for example, those specifically delineated herein. Such assays include, for example, those available from commercial sources, contract research laboratories, and the like."}, "CDK1/cyclin B": {"biological_target": "CDK1/cyclin B (Homo sapiens, UniProt P06493)", "sequence (P06493 whole entry, species assumed)": "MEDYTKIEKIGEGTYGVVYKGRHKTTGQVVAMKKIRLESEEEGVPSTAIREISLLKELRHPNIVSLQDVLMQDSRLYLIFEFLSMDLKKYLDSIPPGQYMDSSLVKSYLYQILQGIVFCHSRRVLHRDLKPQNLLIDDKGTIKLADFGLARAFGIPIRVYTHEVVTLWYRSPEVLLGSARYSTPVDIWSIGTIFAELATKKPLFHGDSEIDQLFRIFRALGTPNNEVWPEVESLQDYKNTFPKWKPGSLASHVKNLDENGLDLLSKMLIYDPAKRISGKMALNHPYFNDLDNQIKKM", "sequence (P14635 whole entry partner, species assumed)": "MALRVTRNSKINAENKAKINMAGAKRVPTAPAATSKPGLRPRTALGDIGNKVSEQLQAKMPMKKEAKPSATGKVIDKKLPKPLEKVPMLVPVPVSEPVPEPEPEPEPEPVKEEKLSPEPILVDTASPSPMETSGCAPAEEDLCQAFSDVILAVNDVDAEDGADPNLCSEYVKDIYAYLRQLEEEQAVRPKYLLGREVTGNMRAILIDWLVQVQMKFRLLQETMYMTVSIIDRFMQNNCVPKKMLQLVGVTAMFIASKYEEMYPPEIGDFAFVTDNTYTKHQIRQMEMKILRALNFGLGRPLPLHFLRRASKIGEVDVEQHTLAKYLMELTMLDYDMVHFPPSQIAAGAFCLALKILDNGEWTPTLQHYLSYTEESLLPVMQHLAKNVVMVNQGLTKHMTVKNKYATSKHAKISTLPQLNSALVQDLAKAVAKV", "settings": "reported; cited from earlier work"}, "CK-II": {"biological_target": "CK-II (Homo sapiens, UniProt P68400)", "sequence (P68400 whole entry)": "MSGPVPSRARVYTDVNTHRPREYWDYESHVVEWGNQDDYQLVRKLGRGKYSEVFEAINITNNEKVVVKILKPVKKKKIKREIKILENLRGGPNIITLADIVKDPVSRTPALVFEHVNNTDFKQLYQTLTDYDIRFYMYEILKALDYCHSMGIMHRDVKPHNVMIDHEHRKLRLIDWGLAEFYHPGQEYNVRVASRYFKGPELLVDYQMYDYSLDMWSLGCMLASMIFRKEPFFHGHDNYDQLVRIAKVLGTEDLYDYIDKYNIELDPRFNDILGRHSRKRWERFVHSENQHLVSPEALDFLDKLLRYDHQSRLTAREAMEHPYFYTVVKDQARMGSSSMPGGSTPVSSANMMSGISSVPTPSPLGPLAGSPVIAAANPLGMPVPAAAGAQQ", "settings": "reported; cited from earlier work"}, "PKC": {"system": "PKC", "settings": "reported; cited from earlier work"}, "[12]": {"settings": "read-out: Log10 GI50 (converted)"}}, "note": "pIC50: −log10 of the molar value. Like-named read-outs stand apart in the source and are kept apart here."}
{"smiles": "Cn1sc(=O)n(Cc2ccccc2)c1=O", "note": "[TDZD-8, 4-benzyl-2-methyl-1,2,4-thiadiazolidine-3,5-dione]", "values": [{"measurement": "viability at 20 µM", "setting": "primary CLL specimens", "value": 7.2, "unit": "%"}, {"measurement": "viability at 20 µM", "setting": "[1]", "value": 21.6, "unit": "%"}, {"measurement": "viability at 20 µM", "setting": "CD34+CD10− ALL cells", "value": 22.3, "unit": "%"}, {"measurement": "erythroid colonies, normalized to untreated controls", "setting": "normal progenitor cells", "value": 94.79, "unit": "%"}, {"measurement": "myeloid colonies, normalized to untreated controls", "setting": "normal progenitor cells", "value": 84.14, "unit": "%"}, {"measurement": "CFU, normalized to untreated controls", "setting": "bcCML progenitor cells", "value": 16.1, "unit": "%"}, {"measurement": "effect on the engraftment of normal specimens", "setting": "[2]", "value": "little to no effect"}, {"measurement": "mBBr labeling (free thiol groups)", "setting": "[3]", "value": "reduction in mBBr labeling is evident"}, {"measurement": "mBBr staining (free thiol groups)", "setting": "normal specimens", "value": "only slight changes in mBBr staining"}, {"measurement": "plasma membrane localized PKCα and β", "setting": "[4]", "value": "decreases"}, {"measurement": "GI50", "setting": "[5]; read-out: GI50", "value": "> 100", "unit": "µM"}, {"measurement": "GI50", "setting": "[5]; [12]", "value": "> 100", "unit": "µM"}, {"measurement": "GI50", "setting": "CCRF-CEM; read-out: GI50", "value": 11.5, "unit": "µM"}, {"measurement": "GI50", "setting": "CCRF-CEM; [12]", "value": 11.5, "unit": "µM"}, {"measurement": "GI50", "setting": "CNS cancer, 6 cell lines; read-out: GI50", "value": "> 100", "unit": "µM"}, {"measurement": "GI50", "setting": "CNS cancer, 6 cell lines; [12]", "value": "> 100", "unit": "µM"}, {"measurement": "GI50", "setting": "[6]; read-out: GI50", "value": "> 100", "unit": "µM"}, {"measurement": "GI50", "setting": "[6]; [12]", "value": "> 100", "unit": "µM"}, {"measurement": "GI50", "setting": "HL-60; read-out: GI50", "value": 200, "unit": "nM"}, {"measurement": "GI50", "setting": "HL-60; [12]", "value": 234, "unit": "nM"}, {"measurement": "GI50", "setting": "K-562; K562, read-out: GI50", "value": 6.5, "unit": "µM"}, {"measurement": "GI50", "setting": "K-562; K562, read-out: Log10 GI50 (converted)", "value": 6.46, "unit": "µM"}, {"measurement": "GI50", "setting": "Melanoma, 8 cell lines; read-out: GI50", "value": "> 100", "unit": "µM"}, {"measurement": "GI50", "setting": "Melanoma, 8 cell lines; [12]", "value": "> 100", "unit": "µM"}, {"measurement": "GI50", "setting": "[7]; read-out: GI50", "value": "> 100", "unit": "µM"}, {"measurement": "GI50", "setting": "[7]; [12]", "value": "> 100", "unit": "µM"}, {"measurement": "GI50", "setting": "[8]; read-out: GI50", "value": "> 100", "unit": "µM"}, {"measurement": "GI50", "setting": "[8]; [12]", "value": "> 100", "unit": "µM"}, {"measurement": "GI50", "setting": "[9]; read-out: GI50", "value": "> 100", "unit": "µM"}, {"measurement": "GI50", "setting": "[9]; [12]", "value": "> 100", "unit": "µM"}, {"measurement": "GI50", "setting": "RPMI-8226; read-out: GI50", "value": 23.4, "unit": "µM"}, {"measurement": "GI50", "setting": "RPMI-8226; [12]", "value": 23.4, "unit": "µM"}, {"measurement": "GI50", "setting": "[10]; read-out: GI50", "value": "> 100", "unit": "µM"}, {"measurement": "GI50", "setting": "[10]; [12]", "value": "> 100", "unit": "µM"}, {"measurement": "GI50", "setting": "SR; read-out: GI50", "value": 10, "unit": "nM"}, {"measurement": "GI50", "setting": "SR; [12]", "value": 10, "unit": "nM"}, {"measurement": "GI50", "setting": "[11]", "value": 8.3, "unit": "µM"}, {"measurement": "% Inhibition mean", "setting": "GSK3B (GSK3 beta)", "value": 99, "unit": "%"}, {"measurement": "inhibition at 20 µM", "setting": "GSK3B (GSK3 beta)", "value": 98, "unit": "%"}, {"measurement": "inhibition at 20 µM", "setting": "SRC", "value": 27, "unit": "%"}, {"measurement": "% Inhibition mean", "setting": "SRC; TDZD-8 20 μM", "value": "little to no inhibition"}, {"measurement": "pIC50", "setting": "CDK1/cyclin B", "value": "< 4.00"}, {"measurement": "pIC50", "setting": "CK-II", "value": "< 4.00"}, {"measurement": "pIC50", "setting": "PKC", "value": "< 4.00"}]}
